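Dose response: 5 concentrations. Exposure: 48 h. Format: 96-well plates. Endpoint: linear interpolation; highest concentration if not reached. GI50 is the concentration that inhibits growth by half. Definition used: TGI = concentration required for complete inhibition of growth.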

Assay in all cases: growth of human tumour cells (NCI), 48 h
Assay [1] deals with TK-10 renal.
For assay [2], the system named is SR leukemia.
For assay [3], the system named is HOP-62 NSCLC.
Assay [4] concerns SF-295 CNS.
Assay [5] deals with NCI-H522 lung.
Assay [6] concerns LOX IMVI melanoma.
In assay [7] the test system is RXF 393 renal.
Assay [8] has as its system OVCAR-5 ovarian.
In assay [9] the test system is HOP-92 NSCLC.
The test system of assay [10] is RPMI-8226 leukemia.

Regarding `Cc1nc([C@H]2CC[C@H]3[C@@H]4CCC5=CC(=O)CC[C@]5(C)[C@H]4CC[C@]23C)cs1`, the GI50 in [1] is 3.33 µM; in assay [2], 584 nM; in assay [3], more than 100 µM; in assay [4] it was 2.21 µM; in [5], 7.01 µM; in [6], 5.09 µM. For the same compound, the GI50 is 10.6 µM in assay [7], more than 100 µM in assay [8], more than 28900 nM in assay [9] and 531 nM in assay [10]. Besides, the TGI in [1], in [3], in [4], in assay [5], in [6] and in assay [7] was more than 100 µM throughout. In addition, the TGI in assay [8] and in assay [9] was more than 100 µM in each case.

For `O=C(O)c1ccc(S(=O)(=O)Nc2ccc3oc4c(c3c2)C(=O)CCC4)cc1`, the GI50 is more than 100 µM in [1]; more than 100000 nM in assay [2]; more than 100 µM in assay [3]; more than 100 µM in [4]; more than 100 µM in assay [5]; more than 100 µM in assay [6]. Also, the GI50 in assay [7] is more than 100 µM; in assay [8], more than 100 µM; in assay [9], more than 100000 nM; in assay [10], more than 100000 nM. For the same compound, the TGI in [1], in assay [2], in assay [3], in assay [4], in assay [5] and in assay [6] was more than 100 µM each time. Besides, the TGI in [7], in assay [8], in assay [9] and in assay [10] was more than 100 µM each time.

In the case of `CC(=O)N1c2ccccc2NC2=C(C(=O)N(Cc3ccccc3)C2(C)C)C1c1ccco1` (stereo not given), the GI50 is 6.14 µM in assay [1]; 463 nM in assay [2]; 1.25 µM in assay [3]; 0.766 µM in assay [4]; 0.871 µM in assay [5]; 1.01 µM in [6]. For the same compound, the GI50 is 0.599 µM in assay [7], 0.44 µM in assay [8], 1020 nM in assay [9] and 758 nM in assay [10]. The TGI was more than 25 µM in assay [1]; more than 25 µM in assay [2]; more than 25 µM in assay [3]; more than 6.83 µM in assay [4]; more than 25 µM in [5]; more than 25 µM in assay [6]. Moreover, the TGI in [7] is 1.87 µM; in assay [8] it was more than 25 µM; in assay [9], more than 25 µM; in assay [10] it was more than 25 µM.

Turning to `CN(C)C/C=C/C(=O)Nc1cc2c(Nc3ccc(F)c(Cl)c3F)ncnc2cc1OCCOC(F)F`, the GI50 in assay [1] is less than 0.01 µM; in [2], 496 nM; in [3], 1.31 µM; in [4] it was 1.72 µM; in assay [5], less than 0.0152 µM; in [6] it was 0.958 µM. For the same compound, the GI50 in assay [7] was 0.241 µM; in assay [8] it was 0.136 µM; in assay [9], 58.5 nM; in assay [10], 921 nM. For the same compound, the TGI was found to be 0.738 µM in assay [1]; 4.83 µM in assay [2]; 5.61 µM in [3]; 9.86 µM in [4]; 1.35 µM in assay [5]; 2.25 µM in assay [6]. In addition, the TGI worked out at 1.6 µM in assay [7], 13.7 µM in assay [8], 1.13 µM in assay [9] and 4.68 µM in assay [10].

On to `O=C(Cc1csc(-c2nc(CC(=O)NNc3ccccc3)cs2)n1)NNc1ccccc1`, for which the TGI in assay [1] was more than 100 µM; in [2] it was 53.6 µM; in assay [3], more than 100 µM; in [4] it was more than 100 µM; in [5], 43.5 µM; in assay [6], 43.7 µM. Moreover, the TGI in assay [7], in [8], in assay [9] and in assay [10] was more than 100 µM each time.

Turning to `COc1ccc(C[C@@H]2NC[C@@H](O)[C@@H]2OC(C)=O)cc1`, the TGI in assay [1] was 0.254 µM; in assay [2], more than 100 µM; in assay [4], 90 µM; in [7] it was 0.0674 µM; in assay [8] it was more than 100 µM; in [9] it was 0.0448 µM. Also, the GI50 in [2] is 6900 nM; in assay [3], 19.3 µM; in assay [4] it was 6.7 µM; in assay [5], 2.06 µM; in assay [6] it was 3.46 µM; in assay [8] it was 14.1 µM. Also, the GI50 in assay [10] is 1790 nM.

With `C#CCN(N=O)C(=O)NC(CCCNC(=O)OCc1ccccc1)C(=O)OCc1ccccc1` (stereo not given), the TGI was more than 100 µM in assay [1]; 84.2 µM in assay [2]; more than 100 µM in [3]; more than 100 µM in [4]; 27.2 µM in assay [5]; more than 100 µM in assay [6]. Moreover, the TGI in assay [7] was 84.4 µM; in assay [8], more than 100 µM; in [9], 96.3 µM; in [10], more than 100 µM.

For `O=c1c(O)cccc2cc(O)c(O)c(O)c12`, the GI50 in assay [1] was 55 µM; in [2], 3760 nM; in [3] it was more than 100 µM; in assay [4], 5.28 µM; in assay [5] it was 3.63 µM; in [6] it was 13.2 µM. Also, the GI50 in [7] is 13.3 µM; in assay [8], 41.8 µM; in assay [9], 19800 nM; in assay [10] it was 6770 nM. Also, the TGI in assay [1] is more than 100 µM; in assay [2] it was more than 100 µM; in [3], more than 100 µM; in assay [4], more than 100 µM; in assay [5] it was 14.5 µM; in assay [6], more than 100 µM. Besides, the TGI in assay [7], in [8], in [9] and in assay [10] was more than 100 µM throughout.

For `Cc1cc(Nc2c3ccccc3nc3ccccc23)ccc1NS(C)(=O)=O`, the GI50 in assay [1] was 3.23 µM; in assay [2], 2110 nM; in [3], 4.61 µM; in assay [4], 4.26 µM; in [5], 3.3 µM; in assay [6], 3.13 µM. The GI50 in assay [7] was 3.46 µM; in assay [8] it was 6.14 µM; in assay [9] it was 758 nM; in [10], 3020 nM. Moreover, the TGI in assay [1] is 11.7 µM; in [2], 5.91 µM; in assay [3], 17.9 µM; in assay [4], 23.4 µM; in [5], 13.1 µM; in assay [6], 13.5 µM. Further, the TGI was found to be 16 µM in assay [7], 22.2 µM in assay [8], 5.69 µM in assay [9] and 11.2 µM in assay [10].

`CN1CCN(c2cc(C(=O)Nc3cc4cc(-c5cnn(C)c5)ccc4cn3)ccn2)CC1`: the GI50 in assay [1] is 0.202 µM; in assay [2], 47.2 nM; in assay [3] it was 0.207 µM; in [4] it was 0.306 µM; in assay [5] it was 0.0472 µM; in [6], 0.0933 µM. Also, the GI50 in assay [7] is 0.258 µM; in assay [8], 0.308 µM; in [9] it was 160 nM; in [10] it was 108 nM. Besides, the TGI is 11.4 µM in [1]; 13.6 µM in [2]; 12.7 µM in [3]; 13.2 µM in assay [4]; 0.327 µM in assay [5]; 0.262 µM in [6]. The TGI was found to be 0.724 µM in assay [7], 11.9 µM in assay [8] and 3.6 µM in assay [9].

Regarding `COc1ccc(-c2nc(C(=O)c3ccccc3)n(CC(=O)c3ccccc3)c2-c2ccc(OC)cc2)cc1`, the GI50 in assay [1] was more than 100 µM; in assay [2] it was more than 100000 nM; in assay [3], more than 100 µM; in [4] it was more than 100 µM; in assay [5], more than 100 µM; in assay [6] it was more than 100 µM. The GI50 in [7] is more than 100 µM; in assay [8], more than 100 µM; in assay [9] it was 12400 nM; in [10] it was more than 100000 nM. Besides, the TGI in [1], in assay [2], in assay [3], in [4], in [5] and in assay [6] was more than 100 µM in each case. The TGI in assay [7], in assay [8], in assay [9] and in assay [10] was more than 100 µM each time.

Consider `NCCN.NCCN.O=C[O-].O=C[O-].[Co+3].[O-][Cl+3]([O-])([O-])[O-]`, for which the GI50 is more than 100 µM in assay [1]; more than 100000 nM in assay [2]; more than 100 µM in assay [3]; more than 100 µM in assay [4]; more than 100 µM in assay [5]; more than 100 µM in assay [6]. Further, the GI50 in assay [7] was more than 100 µM; in assay [8] it was more than 100 µM; in assay [9] it was more than 100000 nM; in [10], more than 100000 nM. Besides, the TGI in [1], in assay [2], in assay [3], in assay [4], in [5] and in [6] was more than 100 µM throughout. In addition, the TGI in assay [7], in assay [8], in assay [9] and in assay [10] was more than 100 µM each time.

Values taken from PubChem BioAssay (NCI).
